# Tests used:
# [1] = molecular target: T1, Factor Xa generation (Factor VIIa, Factor X) (Homo sapiens, UniProt P08709); assay: Cell free two-stage coagulation assay; type: biochemical; conditions: FIG. 2
# T1 construct: purchased Sigma
# Protocol: In vitro coagulation activity was tested in a cell free two-stage coagulation assay. Negatively charged phospholipids at a final concentration of 50 μM (phosphatidylserine and phosphatidylcholine from Sigma, Taufkirchen, Germany) in calcium buffer (50 mM Tris pH=8.1, 150 mM NaCl, 2 mg/ml BSA, 5 mM Ca^++) were mixed with Factor VIIa (Sigma, Taufkirchen, Germany) at 10 nM and with samples or controls and incubated for five min at 37° C. Factor X was added to a final concentration of 30 nM and samples were incubated for 5 min at room temperature. Finally, the chromogenic substrate S2765 (Haemochrom, Essen, Germany) was added in a 100 mM EDTA solution. Factor Xa generation as a measure of Tissue Factor activity was determined by the increase in the absorption at 405 nm.
# Negatively charged phospholipids at a final concentration of 50 μM (phosphatidylserine and phosphatidylcholine from Sigma, St. Louis, Mo.) in calcium buffer (50 mM Tris pH=8.1, 150 mM NaCl, 2 mg/ml BSA, 5 mM Ca^++) were mixed with Factor VIIa (Sigma, St. Louis, Mo.) at 10 nM and with samples or controls and incubated for five minutes at 37° C. Factor X (Sigma, St. Louis, Mo.) was added to a final concentration of 30 nM and samples were incubated for 5 minutes at room temperature. […] Factor Xa generation as a measure of tissue factor activity was determined by the increase in the absorption at 405 nm.
# A20 lymphoma cells = assay: In vitro coagulation assay on A20 cells with B21-2/10H10 capture antibody; type: cell-based, mouse; conditions: for coagulation time: cells alone 190 seconds
# immobilized tTF = molecular target: T2, immobilized tTF (Homo sapiens, UniProt P13726); assay: Real time binding of tTF to immobilized tTF (surface plasmon resonance); conditions: tTF 30 μg/ml alone or preincubated with endotoxin or factor VIIa
# T2 construct: Recombinant soluble Tissue Factor protein (amino acids 1-219) was extracted from the periplasmic space of transformed E. coli; His tag (only implied by the Ni-NTA purification); made in house; host or cells: E. coli (periplasmic secretion, vector pswc7)
# F9 sarcoma tumors = assay: F9 sarcoma mouse model, tumor tissue necrosis; type: in vivo, balb/c nude mice; conditions: endotoxin-free tTF 4 μg; three days after treatment
# Protocol: 1×10^7 F9 sarcoma cells were injected subcutaneously into the right flank of balb/c nude mice. Subcutanous tumors were measured with a caliper in three perpendicular directions a, b, and c, and volumes calculated according to the formula V=π/6×a×b×c. Treatment was initiated when subcutaneous tumors reached a size of 150 to 300 μl.
# Reagents were administered into the lateral tail vein.
# Mice were closely observed after treatment for clinical signs of toxicity and clinical status was documented at defined time points. Three days after treatment, mice were sacrificed and tumors were harvested. Paraffin embedded tissues were stained with hematoxilin and eosin (H&E). Tissue sections were analyzed on a light microscope by two independent investigators and histological findings were documented. Tumor sections with necrotic areas were scanned with a GS-700 imaging densitometer (Biorad. Hercules, Calif.) and areas of necrosis were calculated as % of total section area.
# bEnd 3 cells = assay: Cell bound coagulation assay on stimulated bEnd 3 endothelial cells (factor Xa generation); type: cell-based, murine; conditions: for Factor Xa generation due to Factor VIIa production: factor VII-only values subtracted
# [2] = system: L540rec human Hodgkin's lymphoma tumors; assay: Tumor tissue necrosis in L540rec tumor-bearing SCID mice treated with tTF and/or endotoxin; type: in vivo
# Protocol: For in vivo studies, a metastasizing mouse model for human Hodgkin's lymphoma was used. 1×10^7 L540rec cells were injected subcutaneously into the right flank of SCID mice resulting in a subcutaneous tumor with lymph node metastases in the regional lymph node stations. Subcutanous tumors were measured with a caliper in three perpendicular directions a, b, and c, and volumes calculated according to the formula V=π/6×a×b×c.
# (§1) Treatment was initiated when subcutaneous tumors reached a size of 150 to 300 μl. Reagents were administered into the lateral tail vein.
# (§2) Mice were closely observed after treatment for clinical signs of toxicity and clinical status was documented at defined time points (5 minutes. 10 minutes, 15 minutes, 30 minutes. 1 hour, 2 hours, 24 hours, 48 hours, 72 hours). Blood samples were taken from the tail vein at 1 hour, 2 hours and 24 hours to measure TNFα blood levels. Three days after treatment, the mice were anesthetized, blood samples were taken from the vena cava for coagulation tests, and an autopsy was performed to document any changes in gross pathology. Tumors, lymph node metastases and the major normal organs (heart, lung, brain, liver, kidney, colon, spleen, pancreas) were harvested and prepared for histological analysis.
# (§3) Tissue samples harvested at the time of autopsy were fixed in 3% NBF (normal buffered formalin) and embedded in paraffin wax. Tissue blocs were cut, dewaxed and stained with hematoxilin and eosin (H&E). Tissue sections were analyzed on a light microscope by two independent investigators and histological findings were documented. Tumor sections with necrotic areas were scanned with a GS-700 imaging densitometer (Biorad, Hercules, Calif.) and areas of necrosis were calculated as % of total section area. Statistical Analysis was performed using SPSS software (SPSS Science Software, Erkrath, Germany) applying the Mann-Whitney-U-test for ungrouped data.
# [3] = Clinical signs of toxicity and histology of normal organs after tTF and/or endotoxin; type: in vivo, SCID mice; conditions: for Symptoms: no endotoxin, tTF i.v.
# Protocol: as §1, §2, §3
# [4] = Plasma coagulation parameters (TAT, ATIII) three days after treatment; type: in vivo, SCID mice; conditions: tTF alone, no endotoxin, three days after i.v. treatment
# T1 sequence (P08709 61-212 limits assumed): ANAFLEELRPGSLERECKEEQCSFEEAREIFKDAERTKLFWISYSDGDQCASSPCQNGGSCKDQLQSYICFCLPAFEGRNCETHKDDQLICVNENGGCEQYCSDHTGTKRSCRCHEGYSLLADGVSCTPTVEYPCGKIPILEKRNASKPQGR
# T1 sequence (P08709 213-466 limits assumed): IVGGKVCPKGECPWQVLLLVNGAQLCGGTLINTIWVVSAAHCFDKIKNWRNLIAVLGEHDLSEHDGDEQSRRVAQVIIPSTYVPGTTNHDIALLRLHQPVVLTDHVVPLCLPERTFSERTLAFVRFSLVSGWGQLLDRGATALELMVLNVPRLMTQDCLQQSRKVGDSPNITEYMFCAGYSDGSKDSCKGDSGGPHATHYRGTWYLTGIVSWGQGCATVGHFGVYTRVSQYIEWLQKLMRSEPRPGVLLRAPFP
# T1 sequence (P13726 33-251 partner limits assumed): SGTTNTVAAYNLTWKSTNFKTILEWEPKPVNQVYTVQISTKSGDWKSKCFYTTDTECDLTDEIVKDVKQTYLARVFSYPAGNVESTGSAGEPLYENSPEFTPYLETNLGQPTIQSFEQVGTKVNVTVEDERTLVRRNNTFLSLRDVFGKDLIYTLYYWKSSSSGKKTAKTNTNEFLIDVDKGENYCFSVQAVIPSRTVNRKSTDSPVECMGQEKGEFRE
# T2 sequence (P13726 33-251): as the sequence (P13726 33-251 partner limits assumed) above
substance,measurement,setting,value
"tTF: truncated (soluble) human Tissue Factor, extracellular domain, amino acid 1-219 of the mature protein",coagulation activities before and after endotoxin removal (depyrogenation),[1],the same
same,coagulation time,"A20 lymphoma cells; 20,000 molecules per cell",140 s
same,coagulation time,"A20 lymphoma cells; 300,000 molecules of tTF per cell",40 s
same,concentration at which plasma coagulated in 50 seconds,A20 lymphoma cells; bound via B21-2/10H10 to A20 cells,3 nM
same,time until fibrin strands were visible,"A20 lymphoma cells; mouse plasma, tTF bound by B21-2/10H10, untreated cells 164 seconds",36 s
same,increase in coagulation-inducing potency,A20 lymphoma cells; presence of 0.1 nM Factor VIIa,2-5 fold
same,binding to immobilized tTF,immobilized tTF,did not bind
same,average tumor tissue necrosis,F9 sarcoma tumors,45%
same,Factor Xa generation due to Factor VIIa production,"bEnd 3 cells; stimulation with 0.5 μg/ml LPS (label LPS = medium only), 2 μg/ml factor VII and 0.01 μg/ml factor VIIa",3.00 nkatS2222
same,Factor Xa generation,"bEnd 3 cells; stimulation with 0.5 μg/ml LPS, then incubation with labelled agent (label LPS = medium only), 0.5 μg/ml factor VIIa",2.00 nkatS2222
same,Factor Xa generation,"bEnd 3 cells; stimulation with 10 μg/ml LPS, then incubation with labelled agent (label LPS = medium only), 0.5 μg/ml factor VIIa",2.91 nkatS2222
same,Factor Xa generation due to Factor VIIa production,"bEnd 3 cells; stimulation with Medium, mix with 2 μg/ml factor VII and 0.01 μg/ml factor VIIa",0.70 nkatS2222
same,Factor Xa generation,"bEnd 3 cells; stimulation with Medium, then incubation with the labelled agent (100 nM), mix with 0.5 μg/ml factor VIIa (VIIa not limiting)",0.40 nkatS2222
same,Factor Xa generation,"bEnd 3 cells; stimulation with TNFα (500 U/ml), then incubation with labelled agent (label TNFα = medium only), 0.5 μg/ml factor VIIa",0.67 nkatS2222
same,Factor Xa generation due to Factor VIIa production,"bEnd 3 cells; stimulation with TNFα (label TNFα = medium only), 2 μg/ml factor VII and 0.01 μg/ml factor VIIa",1.91 nkatS2222
same,% tumor necrosis,"[2]; Table 2, tTF alone, no endotoxin, three days after i.v. treatment",4%
same,Percentage of tumor tissue necrosis,"[2]; tTF alone (4 μg or 16 μg endotoxin-free tTF), no endotoxin",0%
same,anti-tumor effect,[2]; tTF alone at 100 μg,anti-tumor effects begin to appear
same,anti-tumor effect,[2]; tTF alone at doses of from 4 μg to 16 μg,no anti-tumor effect
same,histology of normal organs,"[3]; light microscopy, three days after treatment",No histological abnormalities
same,Symptoms,[3]; listed as TTF,None
same,Symptoms,[3]; listed as endotoxin-free tTF,no clinical signs of toxicity
same,TAT,[4],25.4 ng/mL

# Reference: patent US20030139374A1 (University of Texas, published 2003)
